Assay results as given in the NIST ThermoML archive (doi:10.1016/j.jct.2017.11.003).

Experiment: xn = mol fraction of the nth substance listed
Conditions: 100 kPa, Liquid; for speed of sound: Frequency=2 MHz, Linear variable-path acoustic interferometer; for mass density: Vibrating tube method

Cc1cccc(Cl)c1 [3-chlorotoluene] + CCCCCCCCCO
Conditions	mass density, 293.15 K [kg/m3]	mass density, 298.15 K [kg/m3]	mass density, 303.15 K [kg/m3]	mass density, 308.15 K [kg/m3]	speed of sound, 293.15 K [m/s]	speed of sound, 298.15 K [m/s]	speed of sound, 303.15 K [m/s]	speed of sound, 308.15 K [m/s]
x1 = 0.0967	844	841	838	834	1374.3	1357.5	1345.4	1320.9
x1 = 0.1893	861	858	854	850	1366.3	1348.2	1335.6	1310.1
x1 = 0.2985	883	879	875	871	1355.3	1336.2	1323	1297.4
x1 = 0.3926	902	898	894	890	1345	1325.6	1310.9	1286
x1 = 0.4834	923	919	914	910	1335.2	1315.2	1300	1275.7
x1 = 0.5953	950	945	941	937	1323.7	1303.7	1288.3	1264.9
x1 = 0.6918	975	970	966	961	1315.7	1296	1280.3	1257.6
x1 = 0.7946	1004	1000	995	990	1310.2	1291.2	1274.7	1254
x1 = 0.8963	1036	1031	1027	1022	1308.7	1290.7	1273.6	1253.9
x1 = 1	1072	1067	1063	1058	1313.8	1296.5	1279.5	1261.2

Cc1ccccc1Cl [2-chlorotoluene] + CCCCCCCCCO
Conditions	mass density, 293.15 K [kg/m3]	mass density, 298.15 K [kg/m3]	mass density, 303.15 K [kg/m3]	mass density, 308.15 K [kg/m3]	speed of sound, 293.15 K [m/s]	speed of sound, 298.15 K [m/s]	speed of sound, 303.15 K [m/s]	speed of sound, 308.15 K [m/s]
x1 = 0.0846	843	840	836	832	1375.9	1360.1	1348.7	1325.2
x1 = 0.1974	864	861	857	853	1367.7	1351.5	1339.2	1315.5
x1 = 0.2911	883	880	876	872	1359.7	1342.9	1329.6	1305.8
x1 = 0.3964	906	902	898	894	1349.9	1331.9	1318.6	1294
x1 = 0.4896	928	924	920	915	1341.3	1322.3	1308.2	1284
x1 = 0.5943	954	950	946	941	1331.5	1312.2	1298	1273.4
x1 = 0.6918	981	976	972	967	1324	1304.4	1290	1265.8
x1 = 0.7948	1011	1007	1002	997	1318	1298.5	1284	1260.8
x1 = 0.898	1045	1040	1036	1031	1315.2	1297	1280.7	1259.9
x1 = 1	1082	1077	1073	1068	1317	1299.7	1283.9	1265.8

Cc1ccc(Cl)cc1 [4-chlorotoluene] + CCCCCCCCCO
Conditions	mass density, 293.15 K [kg/m3]	mass density, 298.15 K [kg/m3]	mass density, 303.15 K [kg/m3]	mass density, 308.15 K [kg/m3]	speed of sound, 293.15 K [m/s]	speed of sound, 298.15 K [m/s]	speed of sound, 303.15 K [m/s]	speed of sound, 308.15 K [m/s]
x1 = 0.0835	842	839	835	832	1376.5	1358.3	1346.4	1322.8
x1 = 0.1905	862	858	855	851	1369.2	1347.9	1334.9	1311.7
x1 = 0.2888	881	877	873	869	1360.5	1337.3	1323.5	1300.5
x1 = 0.3983	904	900	896	891	1350	1324.8	1310.6	1287.6
x1 = 0.4948	925	921	917	912	1340.2	1313.6	1298.7	1276.4
x1 = 0.594	949	945	940	935	1330	1303	1287.9	1266
x1 = 0.6925	974	970	965	960	1321	1294.2	1278.5	1257.4
x1 = 0.7952	1003	999	994	988	1313	1287.5	1271.4	1250.9
x1 = 0.899	1035	1031	1025	1020	1308	1284.9	1267.7	1248.9
x1 = 1	1069	1065	1060	1054	1306.4	1288.2	1270	1252.1

CCCCCCCCCO [nonan-1-ol] + ClCCCl
Conditions	mass density, 293.15 K [kg/m3]	mass density, 298.15 K [kg/m3]	mass density, 303.15 K [kg/m3]	mass density, 308.15 K [kg/m3]	speed of sound, 293.15 K [m/s]	speed of sound, 298.15 K [m/s]	speed of sound, 303.15 K [m/s]	speed of sound, 308.15 K [m/s]
x2 = 0	828	824	821	818	1380.5	1364.7	1348.1	1330.5
x2 = 0.0922	845	841	838	834	1357.5	1341.4	1329.7	1305.2
x2 = 0.2067	869	866	862	858	1332.2	1315.5	1301.2	1277.5
x2 = 0.2984	892	888	884	880	1313.7	1296.8	1280.6	1257.8
x2 = 0.406	922	918	914	909	1293.1	1275.5	1258	1235
x2 = 0.4896	950	946	941	936	1277.3	1260.3	1242.2	1219
x2 = 0.6039	994	989	984	979	1258.2	1240.6	1221.4	1199
x2 = 0.6928	1035	1030	1025	1019	1243.5	1226.4	1206.5	1184.8
x2 = 0.8087	1101	1095	1089	1083	1227.5	1210.5	1190	1169
x2 = 0.9063	1170	1163	1157	1150	1216.7	1199	1179.2	1159.9
